Laboratory results taken from patent US8716293B2, “Macrocyclic integrase inhibitors” (Janssen R&D Ireland, priority 2010, dated 2014).
pEC50: −log10 of the molar value.

Legend:
HIV-1 SDM strain Q148R = experiment: cell-based HIV-1 replication assay in MT4-LTR-EGFP cells, Q148R mutant; conditions: fold change in activity against Q148R mutant compared to wild type HIV
Source text: (§1) MT4-LTR-enhanced green fluorescent protein (EGFP) cells were obtained by transfecting MT4 cells with a selectable construct encompassing the coding sequences for the HIV LTR as a promoter for the expression of EGFP and subsequent selection of permanently transfected cells. MT4-cytomegalovirus (CMV)-EGFP cells were obtained by selection for permanently transformed MT4 cells with a CMV-EGFP reporter gene. Cell lines were maintained in RPMI 1640 medium supplemented with 10% heat-inactivated fetal calf serum, 2 mM L-glutamine, 0.1% NaHCO3, and antibiotics (0.02% gentamicin and 0.8% G418) and incubated in a humidified incubator with a 5% CO2 atmosphere at 37° C.
(§2) N155H and Q148R mutant Integrase coding sequences were constructed in the pUC19-5′HXB2D vector (XbaI-SalI fragment of pHXB2D), containing the HIV-1 clone HXB2D IN coding sequence, by using a QuikChange site-directed mutagenesis kit (Stratagene, La Jolla, Calif.) and HPLC-purified primers (Genset Oligos, La Jolla, Calif.). Altered plasmid sequences were confirmed by dideoxyribose sequencing. For generation of site-directed mutant (SDM) virus stocks, MT4 cells were subcultured at a density of 250,000 cells/ml on the day before transfection. Cells were pelleted and resuspended in phosphate-buffered saline at a concentration of 3.1×10^6 cells/ml. A 0.8-ml portion ([…]) was used for each transfection. Transfections were performed with a Bio-Rad Gene Pulser (Bio-Rad, Hercules, Calif.) with 0.4-cm electrode cuvettes (Bio-Rad). Cells were electroporated with 10 μg of SalI-linearized pUC19-3′HXB2D (SalI-XbaI fragment of pHXB2D) and 5 μg of SalI-digested SDM at 250 μF and 300 V, followed by a 30-min incubation at room temperature. Ten ml of fresh culture medium was then added to the suspension of transfected cells, and incubation was performed at 37° C. in a humidified atmosphere with 5% CO2. Cell cultures were monitored for the appearance of cytopathic effect (CPE).
(§3) The inhibitory antiviral activity of different compounds was determined in a cell-based HIV-1 replication assay. MT4-LTR-EGFP cells (150,000 cells/ml) were infected with HIV-1 (IIIB or SDM strains Q148R, N155H, or G140S-Q148H; multiplicity of infection [MOI] of 0.0025) in the presence or absence of inhibitor. After 3 days of incubation, the inhibition of HIV replication was quantified by measuring EGFP fluorescence, and expressed as the compound concentration required for 50% inhibition of HIV-1 replication in cell culture (EC50).

HIV-1 LAI (IIIB) = experiment: antiviral assay in the presence of 50% human serum; type: cell-based; conditions: MT-4-LTR-EGFP cells, 4 days, resazurin cell viability
Protocol: For the antiviral assay in the presence of 50% human serum, MT-4-LTR-EGFP cells were infected with HIV-1 LAI (IIIB) at a MOI of 0.001 to 0.01 CCID50/cell in RPMI1640 medium. Following 1 h of incubation, cells were washed and plated into a 96-well plate containing serial dilutions of test compound in the presence of 10% fetal calf serum or 50% human serum. After 4 days of incubation, the EC50 in the presence of 50% human serum (EC50/HS) was determined by a cell viability assay using resazurin (as described by Fields, R. D., and M. V. Lancaster (1993) Am. Biotechnol. Lab. 11:48-50).

[1] = tested on: cryopreserved hepatocytes from Sprague Dawley rats; experiment: metabolic stability in rat hepatocytes; type: in vitro ADME; conditions: 1 μM, percentage turnover; for Rat (% TO) 15 min: 15 min incubation; for Rat (% TO) 60 min: 60 min incubation
Protocol: (§4) For determining in vitro metabolic stability, cryopreserved hepatocytes from Sprague Dawley rats and of human subjects (pool of male and female) were obtained from an external supplier (Cellz Direct Inc., Paisly, UK). Tested compounds were dissolved in DMSO and this stock solution was used to spike rat and human hepatocyte cell cultures (10^6 cells/ml) at a final concentration of 1 μM (final percentage of DMSO was 0.02% (v/v)). Incubations were performed for up to 60 min at approximately 37° C. and terminated by the addition of two volumes of DMSO. Samples were then centrifuged and aliquots of the supernatant analyzed using liquid chromatography (LC) with electrospray mass spectrometric detection (MS/MS) to monitor the disappearance of parent compound by single reaction monitoring (SRM) and reverse-phase chromotatography with a gradient of acetonitrile and water containing 0.1% (v/v) formic acid. Based on peak area, the percentage of parent compound remaining after 15 and 60 min incubation was calculated and the results, expressed as percentage turnover (TO) relative to time zero controls.

[2] = pharmacokinetic evaluation in the rat; type: in vivo, male Sprague-Dawley rats; conditions: intravenous bolus 2 mg/kg; for CLp / clearance: plasma clearance; for t1/2 / half-life: terminal phase elimination half-life; for Vss / Vd: volume of distribution at steady-state; for clearance / half-life / Vd: male, Sprague-Dawley, plasma, iv, 2 mg/kg; for clearance: read-out: CLp; for Vd: read-out: Vss
Protocol: For determining the pharmacokinetic properties in rat, each HIV integrase inhibitor was dissolved in PEG400/normal saline (70:30 (v/v)) at a nominal concentration of 1 mg/ml and administered (2 ml/kg) to male Sprague-Dawley rats (n=3 per test compound) as an intravenous bolus via a saphenous vein at a dose level of 2 mg/kg. […] Plasma was obtained by centrifugation and stored at −20° C. prior to analysis. Analysis was performed using liquid chromatography (LC) with tandem mass spectrometric detection (MS/MS) in positive ion mode. Each HIV integrase inhibitor was eluted from a reversed-phase column with a gradient of acetonitrile and water containing 0.1% (v/v) formic acid. At the time of analysis plasma samples (50 p. 1) were thawed and […] with 200 μl of acetonitrile containing 0.1% (v/v) formic acid and centrifuged. Aliquots of the supernatant (100 μl) were diluted with 200 μl of water containing 25% (v/v) methanol and 0.1% (v/v) formic acid and injected via an electrospray interface directly into the Mass Spectrometer. Calibration standards and quality controls were prepared in rat plasma at the same time as the samples and analyzed before and after the samples containing HIV integrase inhibitor. Non-compartmental pharmacokinetic analysis of the plasma concentration-time curves was performed using WinNonLin software to provide estimates of the plasma clearance (CLp), volume of distribution at steady-state (Vss) and terminal phase elimination half-life (t1/2).

[3] = tested on: HIV-1 SDM strain G140S-Q148H; experiment: cell-based HIV-1 replication assay in MT4-LTR-EGFP cells, G140S-Q148H mutant; conditions: fold change in activity against G140S-Q148H mutant compared to wild type HIV
Source text: as §1, §2, §3

HIV-1 SDM strain N155H = experiment: cell-based HIV-1 replication assay in MT4-LTR-EGFP cells, N155H mutant; conditions: fold change in activity against N155H mutant compared to wild type HIV
Source text: as §1, §2, §3

[4] = tested on: cryopreserved hepatocytes of human subjects; experiment: metabolic stability in human hepatocytes; type: in vitro ADME; conditions: 1 μM, percentage turnover; for Human (% TO) 15 min: 15 min incubation; for Human (% TO) 60 min: 60 min incubation
Protocol: as §4

HIV-1 (IIIB) = experiment: cell-based HIV-1 replication assay in MT4-LTR-EGFP cells, wild type; conditions: Human immunodeficiency virus 1, 72 h, 3 days, EGFP fluorescence
Source text: as §1
as §3, with “(EC50). The antiviral activities of the different compounds are reported in Table 4 and expressed as EC50 for the inhibition of wild type HIV (IIIB EC50) and as fold change in activity against the mutant strains (FC-Q148R, FC-N155H, FC-G140S-Q148H) compared to the activity against wild type HIV.” for “(EC50).”

[5] = Human immunodeficiency virus 1, IIIB, 96 h

Row | SMILES | FC-Q148R (HIV-1 SDM strain Q148R) | pEC50 (HIV-1 LAI (IIIB)) | Rat (% TO) 15 min [1] [% TO] | Rat (% TO) 60 min [1] [% TO] | CLp [2] [mL/min/kg] | t1/2 [2] [h] | Vss [2] [L/kg] | FC-G140S-Q148H [3] | FC-N155H (HIV-1 SDM strain N155H) | Human (% TO) 15 min [4] [% TO] | Human (% TO) 60 min [4] [% TO] | pEC50 (HIV-1 LAI (IIIB); [5]) | pEC50 (HIV-1 (IIIB)) | clearance [2] [mL/min/kg] | half-life [2] [h] | Vd [2] [L/kg]
1 | CCN1C[C@H](C)n2c(c(O)c3c(=O)n4nc(c32)N(C)S(=O)(=O)CCCCCOc2cc(F)ccc2C4)C1=O [Compound 5] | 0.5 | 7.80 | 15 | 20 | 8 | 4.9 | 1.5 | 1.2 | 2.4 | 12 | 38 | – | – | – | – | –
2 | CC(C)N1C[C@H](C)n2c(c(O)c3c(=O)n4nc(c32)N(C)S(=O)(=O)CCCCOc2cc(F)ccc2C4)C1=O [Compound 6] | 0.7 | 8.30 | 20 | 33 | 5 | 5.5 | 0.7 | 1.7 | 3.2 | 23 | 36 | – | – | – | – | –
3 | CC(C)N1C[C@H](C)n2c(c(O)c3c(=O)n4nc(c32)N(C)S(=O)(=O)CCCCCOc2cc(F)ccc2C4)C1=O [Compound 7] | 0.4 | 7.92 | 21 | 31 | 7 | 4.8 | 0.9 | 1.0 | 2.2 | 2 | 12 | – | – | – | – | –
4 | CCN1C[C@H](C)n2c(c(O)c3c(=O)n4nc(c32)N2CCN(CC2)C(=O)CCCOc2cc(F)ccc2C4)C1=O [Compound 44] | 0.7 | 8.22 | 48 | 70 | 16 | 5.2 | 1.8 | 1.3 | 3.9 | 20 | 43 | – | – | – | – | –
5 | CCN1C[C@H](C)n2c(c(O)c3c(=O)n4nc(c32)N(C)S(=O)(=O)CCCCOCc2cc(F)ccc2C4)C1=O [Compound 48] | 0.5 | 8.40 | 65 | 86 | 20 | 1.4 | 0.7 | 1.3 | 4.7 | 38 | 72 | – | – | – | – | –
6 | CCN1C[C@H](C)n2c(c(O)c3c(=O)n(Cc4ccc(F)c(Cl)c4)nc(C(=O)NC)c32)C1=O [Compound 52r, reference compound] | 1.2 | – | 38 | 76 | – | – | – | 56.9 | 6.8 | 25 | 44 | 7.54 | 8.47 | 5 | 1.6 | 0.2
7 | CCN1C[C@H](C)n2c(c(O)c3c(=O)n(Cc4ccc(F)cc4)nc(N(C)S(C)(=O)=O)c32)C1=O [Compound 53r, reference compound] | 0.4 | – | 60 | 89 | – | – | – | 2.0 | 4.9 | 41 | 84 | 8.52 | 9.00 | 75 | 1.7 | 2.9
